Measurements taken from patent US11326168B2, “Use of potassium channel inhibitor for treating depression” (ZHEJIANG UNIVERSITY, priority 2017, dated 2022).

Tested on: LHb neurons
Type: cell-based
Conditions: not given

| SMILES | firing frequency of bursting neurons |
| --- | --- |
| [Ba+2].[Cl-].[Cl-] [BaCl2] | dramatic increase |

Same assay, conditions: BaCl2 100 μM, about 10 min bath perfusion

| SMILES | RMPs of tonic and burst-firing LHb neurons |
| --- | --- |
| [Ba+2].[Cl-].[Cl-] [BaCl2] | depolarized |

Biological target: T1, Kir4.1 (Homo sapiens, UniProt P78508)
T1 sequence (P78508 1-379): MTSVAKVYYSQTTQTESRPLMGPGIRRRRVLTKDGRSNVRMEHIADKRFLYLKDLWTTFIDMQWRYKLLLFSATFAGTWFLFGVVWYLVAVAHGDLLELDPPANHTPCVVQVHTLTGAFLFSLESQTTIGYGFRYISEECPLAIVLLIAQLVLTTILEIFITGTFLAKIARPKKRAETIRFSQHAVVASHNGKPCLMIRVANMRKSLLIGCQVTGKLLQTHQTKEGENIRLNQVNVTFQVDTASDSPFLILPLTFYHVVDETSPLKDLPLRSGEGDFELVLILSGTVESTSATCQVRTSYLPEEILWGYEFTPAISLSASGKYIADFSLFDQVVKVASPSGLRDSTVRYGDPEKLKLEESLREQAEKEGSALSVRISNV
Conditions: Ohno et al., 2007; Wang et al., 2006; Kharade et al., 2018; cited from earlier work

| SMILES | Kir4.1 inhibition (literature statement) |
| --- | --- |
| CC(C)c1ccc(OCC(=O)NC2CC(C)(C)NC(C)(C)C2)c(Br)c1 [VU0134992] | highly selective and specific Kir4.1 inhibitor |
| CN(C)CCC=C1c2ccccc2CCc2ccccc21 [amitriptyline] | inhibit Kir4.1, yet with lower affinity |
| CNCCCN1c2ccccc2CCc2ccccc21 [desipramine] | inhibit Kir4.1, yet with lower affinity |
| CNCCC(Oc1ccc(C(F)(F)F)cc1)c1ccccc1 (stereo not shown) [fluoxetine] | inhibit Kir4.1, yet with lower affinity |
| COCCCC/C(=N\OCCN)c1ccc(C(F)(F)F)cc1 [fluvoxamine] | inhibit Kir4.1, yet with lower affinity |
| CN(C)CCCN1c2ccccc2CCc2ccccc21 [imipramine] | inhibit Kir4.1, yet with lower affinity |
| CNCCC=C1c2ccccc2CCc2ccccc21 [nortriptyline] | inhibit Kir4.1, yet with lower affinity |
| CN[C@H]1CC[C@@H](c2ccc(Cl)c(Cl)c2)c2ccccc21 [sertraline] | inhibit Kir4.1, yet with lower affinity |
